Data reported in publication PMC3009956, “Human immunome, bioinformatic analyses using HLA supermotifs and the parasite genome, binding assays, studies of human T cell responses, and immunization of HLA-A*1101 transgenic mice including novel adjuvants provide a foundation for HLA-A03 restricted CD8^+T cell epitope based, adjuvanted vaccine …” (Immunome Research, 2010).
Where no end group is shown, it is not given here.

Key:
HLA-A*3301 = HLA-A*3301 (Homo sapiens, UniProt P04439, A270S/D185E/E176V/E277Q/E87N/F33T/G231S/H175R/I121M/I218V/I322F/K168Q/K210R/L300P/L318F/M331R/P217A/Q86R/Q94H/R138Q/T323A/T345S/T97I/V358M/Y195H); assay: MHC-peptide binding assay, inhibition of binding of radiolabeled standard peptide; conditions: read-out: MHC binding affinity HLA-A*3301
Description: (§1) Assays were as described.

HLA-A*1101 = HLA-A*1101 (Homo sapiens, UniProt P04439, A114D/D185E/E176A/F33Y/L180Q/S129P/T187R); assay: as above; conditions: unit not given in Table 1 (same values in Table 3 as IC50 nM), newly identified peptides, read-out: Affinity HLA-A*1101
Description: as §1

HLA-A*0301 = HLA-A*0301 (Homo sapiens, UniProt P04439); assay: as above; conditions: read-out: MHC binding affinity HLA-A*0301
Description: as §1

HLA-A*6801 = HLA-A*6801 (Homo sapiens, UniProt P04439, A269V/D185E/E176V/E277Q/E87N/F33Y/G231S/I121M/I166T/I218V/L180W/L300P/L318F/N151K/P208A/P217A/Q86R/R169H/T345S); assay: as above; conditions: read-out: MHC binding affinity HLA-A*6801
Description: as §1

HLA-A*3001 = HLA-A*3001 (Homo sapiens, UniProt P04439, D140H/D185E/E176W/F33S/G80R/H175R/K168Q/R138E/R41S); assay: as above; conditions: read-out: MHC binding affinity HLA-A*3001
HLA-A*3001, sequence (P04439 25-365 limits assumed, stated change not applied): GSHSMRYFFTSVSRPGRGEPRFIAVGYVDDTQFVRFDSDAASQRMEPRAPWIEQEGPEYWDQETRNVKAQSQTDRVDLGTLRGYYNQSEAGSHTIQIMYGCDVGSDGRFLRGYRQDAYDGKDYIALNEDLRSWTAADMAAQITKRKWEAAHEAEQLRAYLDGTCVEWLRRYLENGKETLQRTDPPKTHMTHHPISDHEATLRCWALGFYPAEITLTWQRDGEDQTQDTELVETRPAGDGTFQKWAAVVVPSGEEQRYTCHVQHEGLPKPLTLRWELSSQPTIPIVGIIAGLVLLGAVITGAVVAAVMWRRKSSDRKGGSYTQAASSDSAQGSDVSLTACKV
Description: as §1

HLA-A*3101 = HLA-A*3101 (Homo sapiens, UniProt P04439, A270S/D185E/E176V/E277Q/F33T/G231S/G80R/H175R/I121M/I218V/I322F/K168Q/L300P/L318F/M331R/P217A/Q94H/R138Q/T323A/T345S/T97I/V358M); assay: as above; conditions: read-out: MHC binding affinity HLA-A*3101
Description: as §1

[1] = system: splenocytes of HLA-A*1101 transgenic mice; assay: Ex vivo IFN-γ ELISpot assay with splenocytes of immunized HLA-A*1101 transgenic mice; type: in vivo; conditions: Figure 3b; mice immunized with mixture of peptides and adjuvants compared with LpKS9-AM9-RS9
Protocol: To evaluate peptide immunogenicity, HLA-A*1101 transgenic mice were inoculated subcutaneously (s.c.) at the base of the tail using a 30-gauge needle with single peptides or a mixture of CD8^+ T cell peptides (50 μg of each peptide per mouse) and PADRE ([…]) emulsified in 20 μg of GLA-SE (TLR4 agonist) with or without Pam2Cys. Pam2Cys concentration was 5 mg/ml. For immunization with lipopeptides, HLA-A*1101 mice received 20 nmol lipopeptide dissolved in PBS or emulsified in GLA-SE. As controls, mice were injected with PBS or PBS/GLA-SE. For the lipopeptide immunizations, the mice were vaccinated twice at intervals of three weeks. For the peptide immunizations, mice were immunized three times at intervals of two weeks. For challenge studies, mice were immunized with peptide emulsions and challenged intraperitoneally (i.p.) 14 days post-immunization using 10,000 Type II parasites.
Mice were euthanized 7 to 14 days after immunization. […]
PBMC were obtained, HLA haplotype was determined, and they were processed and cryopreserved as described. […] Results were expressed as number of spot forming cells (SFCs) per 10^6 PBMCs or per 10^6 murine splenocytes.
Two-tailed P values < 0.05 were considered statistically significant. […] The experiment in Figure 7b determined immune response and imaged mice in parallel.

Row | Sequence | IC50 (HLA-A*3301) [nM] | IC50 (HLA-A*1101) [nM] | IC50 (HLA-A*0301) [nM] | IC50 (HLA-A*6801) [nM] | IC50 (HLA-A*3001) [nM] | IC50 (HLA-A*3101) [nM] | IFN-γ production on stimulation of spleen cells by the peptide [1]
1 | AVVSLLRLLK | 1100 | 34 | 17 | 94 | 8.1 | 1300 | –
2 | RSFKDLLKK | – | – | – | – | – | – | not significant
3 | SSAYVFSVK | 181 | 10 | 12 | 2.1 | 1830 | 97 | –
4 | STFWPCLLR | 3.4 | 10 | 22 | 0.97 | 1270 | 1.2 | –
